Experimental data reported in patent publication US11959086B2, “Dual transit peptides for targeting polypeptides” (BASF AGRO B.V., priority 2016, dated 2024).

Assays:
Assay in all cases: Herbicide injury evaluation of Arabidopsis plants, greenhouse
Format in all cases: in vivo
[1] = test system: Wildtype/non-transgenic Arabidopsis thaliana; conditions: scale 0-100
[2] = test system: transgenic Arabidopsis thaliana, transgene SEQ ID NO 118; conditions: scale 0-100
[3] = test system: transgenic Arabidopsis thaliana, transgene SEQ ID NO 120; conditions: Table 4, scale 0-100
[4] = test system: transgenic Arabidopsis thaliana, transgene SEQ ID NO 117; conditions: Table 3, scale 0-100
[5] = test system: transgenic Arabidopsis thaliana, transgene SEQ ID NO 121; conditions: Table 3, scale 0-100
[6] = test system: transgenic Arabidopsis thaliana, transgene SEQ ID NO 128; conditions: Table 3, scale 0-100

SMILES: CCOC(=O)COc1ncccc1Oc1cc(-n2c(=O)cc(C(F)(F)F)n(C)c2=O)c(F)cc1Cl [S3100, ethyl [3-[2-chloro-4-fluoro-5-(1-methyl-6-trifluoromethyl-2,4-dioxo-1,2,3,4-tetrahydropyrimidin-3-yl)phenoxy]-2-pyridyloxy]acetate]
- Herbicide injury evaluation 14 days after herbicide treatment ([1]; Table 4, 50 g ai/ha + 1% MSO): 100
- Herbicide injury evaluation 14 days after herbicide treatment ([1]; Table 4, 100 g ai/ha + 1% MSO): 100
- Herbicide injury evaluation 14 days after herbicide treatment ([1]; Table 4, 200 g ai/ha + 1% MSO): 100
- Herbicide injury evaluation 14 days after herbicide treatment ([2]; Table 4, SEQ ID NO 118 Q, 50 g ai/ha + 1% MSO): 65
- Herbicide injury evaluation 14 days after herbicide treatment ([2]; Table 4, SEQ ID NO 118 Q, 100 g ai/ha + 1% MSO): 65
- Herbicide injury evaluation 14 days after herbicide treatment ([2]; Table 4, SEQ ID NO 118 Q, 200 g ai/ha + 1% MSO): 65
- Herbicide injury evaluation 14 days after herbicide treatment ([2]; Table 4, SEQ ID NO 118 R, 50 g ai/ha + 1% MSO): 60
- Herbicide injury evaluation 14 days after herbicide treatment ([2]; Table 4, SEQ ID NO 118 R, 100 g ai/ha + 1% MSO): 63
- Herbicide injury evaluation 14 days after herbicide treatment ([2]; Table 4, SEQ ID NO 118 R, 200 g ai/ha + 1% MSO): 53
- Herbicide injury evaluation 14 days after herbicide treatment ([3]; SEQ ID NO 120 J, 50 g ai/ha + 1% MSO): 75
- Herbicide injury evaluation 14 days after herbicide treatment ([3]; SEQ ID NO 120 J, 100 g ai/ha + 1% MSO): 95
- Herbicide injury evaluation 14 days after herbicide treatment ([3]; SEQ ID NO 120 J, 200 g ai/ha + 1% MSO): 80
- Herbicide injury evaluation 14 days after herbicide treatment ([3]; SEQ ID NO 120 M, 50 g ai/ha + 1% MSO): 97
- Herbicide injury evaluation 14 days after herbicide treatment ([3]; SEQ ID NO 120 M, 100 g ai/ha + 1% MSO): 85
- Herbicide injury evaluation 14 days after herbicide treatment ([3]; SEQ ID NO 120 M, 200 g ai/ha + 1% MSO): 89

SMILES: Cc1nn(-c2cc(NS(C)(=O)=O)c(Cl)cc2Cl)c(=O)n1C(F)F [Sulfentrazone, sulfentrazone]
- Herbicide injury evaluation 14 days after herbicide treatment ([1]; Table 3, 280 g ai/ha + 1% MSO): 100
- Herbicide injury evaluation 14 days after herbicide treatment ([1]; Table 3, 560 g ai/ha + 1% MSO): 100
- Herbicide injury evaluation 14 days after herbicide treatment ([1]; Table 3, 1120 g ai/ha + 1% MSO): 100
- Herbicide injury evaluation 14 days after herbicide treatment ([4]; SEQ ID NO 117 C, 280 g ai/ha + 1% MSO): 83
- Herbicide injury evaluation 14 days after herbicide treatment ([4]; SEQ ID NO 117 C, 560 g ai/ha + 1% MSO): 99
- Herbicide injury evaluation 14 days after herbicide treatment ([4]; SEQ ID NO 117 C, 1120 g ai/ha + 1% MSO): 98
- Herbicide injury evaluation 14 days after herbicide treatment ([4]; SEQ ID NO 117 I, 280 g ai/ha + 1% MSO): 89
- Herbicide injury evaluation 14 days after herbicide treatment ([4]; SEQ ID NO 117 I, 560 g ai/ha + 1% MSO): 85
- Herbicide injury evaluation 14 days after herbicide treatment ([4]; SEQ ID NO 117 I, 1120 g ai/ha + 1% MSO): 98
- Herbicide injury evaluation 14 days after herbicide treatment ([2]; Table 3, SEQ ID NO 118 Q, 280 g ai/ha + 1% MSO): 25
- Herbicide injury evaluation 14 days after herbicide treatment ([2]; Table 3, SEQ ID NO 118 Q, 560 g ai/ha + 1% MSO): 40
- Herbicide injury evaluation 14 days after herbicide treatment ([2]; Table 3, SEQ ID NO 118 Q, 1120 g ai/ha + 1% MSO): 48
- Herbicide injury evaluation 14 days after herbicide treatment ([2]; Table 3, SEQ ID NO 118 R, 280 g ai/ha + 1% MSO): 15
- Herbicide injury evaluation 14 days after herbicide treatment ([2]; Table 3, SEQ ID NO 118 R, 560 g ai/ha + 1% MSO): 18
- Herbicide injury evaluation 14 days after herbicide treatment ([2]; Table 3, SEQ ID NO 118 R, 1120 g ai/ha + 1% MSO): 40
- Herbicide injury evaluation 14 days after herbicide treatment ([5]; SEQ ID NO 121 G, 280 g ai/ha + 1% MSO): 100
- Herbicide injury evaluation 14 days after herbicide treatment ([5]; SEQ ID NO 121 G, 560 g ai/ha + 1% MSO): 100
- Herbicide injury evaluation 14 days after herbicide treatment ([5]; SEQ ID NO 121 G, 1120 g ai/ha + 1% MSO): 100
- Herbicide injury evaluation 14 days after herbicide treatment ([5]; SEQ ID NO 121 H, 280 g ai/ha + 1% MSO): 100
- Herbicide injury evaluation 14 days after herbicide treatment ([5]; SEQ ID NO 121 H, 560 g ai/ha + 1% MSO): 100
- Herbicide injury evaluation 14 days after herbicide treatment ([5]; SEQ ID NO 121 H, 1120 g ai/ha + 1% MSO): 100
- Herbicide injury evaluation 14 days after herbicide treatment ([6]; SEQ ID NO 128 D, 280 g ai/ha + 1% MSO): 73
- Herbicide injury evaluation 14 days after herbicide treatment ([6]; SEQ ID NO 128 D, 560 g ai/ha + 1% MSO): 83
- Herbicide injury evaluation 14 days after herbicide treatment ([6]; SEQ ID NO 128 D, 1120 g ai/ha + 1% MSO): 95
- Herbicide injury evaluation 14 days after herbicide treatment ([6]; SEQ ID NO 128 E, 280 g ai/ha + 1% MSO): 70
- Herbicide injury evaluation 14 days after herbicide treatment ([6]; SEQ ID NO 128 E, 560 g ai/ha + 1% MSO): 93
- Herbicide injury evaluation 14 days after herbicide treatment ([6]; SEQ ID NO 128 E, 1120 g ai/ha + 1% MSO): 95
